{
  "source": "paper PMC3402552",
  "about": "(Journal of Medicinal Chemistry, 2012)",
  "key": {"5-HT2B": {"biological_target": "5-HT2B (Homo sapiens, UniProt P41595)", "sequence (P41595 whole entry, species assumed)": "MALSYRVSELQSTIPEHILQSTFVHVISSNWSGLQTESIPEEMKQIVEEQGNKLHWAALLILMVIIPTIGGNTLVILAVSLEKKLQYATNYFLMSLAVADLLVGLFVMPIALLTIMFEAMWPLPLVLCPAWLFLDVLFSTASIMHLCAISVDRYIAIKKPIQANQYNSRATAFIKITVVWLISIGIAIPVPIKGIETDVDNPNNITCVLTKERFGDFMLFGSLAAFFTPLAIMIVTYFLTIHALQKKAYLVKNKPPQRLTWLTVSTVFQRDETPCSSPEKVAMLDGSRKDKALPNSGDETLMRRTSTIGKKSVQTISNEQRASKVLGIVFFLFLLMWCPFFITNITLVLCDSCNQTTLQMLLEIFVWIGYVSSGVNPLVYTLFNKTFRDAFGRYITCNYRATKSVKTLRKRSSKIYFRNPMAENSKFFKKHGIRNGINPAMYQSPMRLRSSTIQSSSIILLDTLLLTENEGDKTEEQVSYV", "assay": "PDSP radioligand competition binding, 5-HT2B", "settings": "Figure 9B"}, "5-HT2A F6.51L mutant": {"test_system": "5-HT2A F6.51L mutant", "settings": "cited from earlier work"}, "5-HT2A W6.48A mutant": {"test_system": "5-HT2A W6.48A mutant", "settings": "cited from earlier work"}, "5-HT2A S3.36A/C mutant": {"test_system": "5-HT2A S3.36A/C mutant", "settings": "S3.36A/C mutations; cited from earlier work"}, "5-HT2A F6.52L mutant": {"test_system": "5-HT2A F6.52L mutant", "settings": "F6.52L mutation; cited from earlier work"}, "5-HT2A": {"biological_target": "5-HT2A (Homo sapiens, UniProt P28223)", "sequence (P28223 whole entry, species assumed)": "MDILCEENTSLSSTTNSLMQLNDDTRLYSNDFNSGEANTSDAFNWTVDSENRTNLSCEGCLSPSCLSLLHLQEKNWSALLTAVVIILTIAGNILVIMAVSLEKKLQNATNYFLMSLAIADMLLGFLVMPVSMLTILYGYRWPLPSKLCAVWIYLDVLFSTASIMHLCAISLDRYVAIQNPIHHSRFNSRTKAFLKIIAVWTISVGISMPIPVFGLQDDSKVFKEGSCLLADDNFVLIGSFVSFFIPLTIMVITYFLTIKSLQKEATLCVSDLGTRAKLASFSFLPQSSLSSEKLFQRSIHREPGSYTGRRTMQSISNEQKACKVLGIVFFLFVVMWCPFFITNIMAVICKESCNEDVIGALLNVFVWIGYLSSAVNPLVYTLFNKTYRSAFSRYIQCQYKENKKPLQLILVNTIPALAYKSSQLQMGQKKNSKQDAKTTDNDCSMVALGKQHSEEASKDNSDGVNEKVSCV", "assay": "PDSP radioligand competition binding, 5-HT2A", "settings": "5-HTR profiling"}, "5-HT1B": {"biological_target": "5-HT1B (Homo sapiens, UniProt P28222)", "sequence (P28222 whole entry, species assumed)": "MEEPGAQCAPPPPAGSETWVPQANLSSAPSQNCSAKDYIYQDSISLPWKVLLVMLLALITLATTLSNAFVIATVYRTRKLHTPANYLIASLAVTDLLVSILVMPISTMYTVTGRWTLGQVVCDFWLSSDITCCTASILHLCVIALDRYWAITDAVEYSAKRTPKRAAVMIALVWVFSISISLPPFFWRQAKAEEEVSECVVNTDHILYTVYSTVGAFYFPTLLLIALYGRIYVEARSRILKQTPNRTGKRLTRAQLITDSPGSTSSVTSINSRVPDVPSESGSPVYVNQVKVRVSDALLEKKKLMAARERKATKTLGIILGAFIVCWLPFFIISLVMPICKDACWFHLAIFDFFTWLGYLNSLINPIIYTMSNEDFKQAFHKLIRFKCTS", "assay": "PDSP radioligand competition binding, 5-HT1B", "settings": "5-HTR profiling"}, "5-HT1E": {"biological_target": "5-HT1E (Homo sapiens, UniProt P28566)", "sequence (P28566 whole entry, species assumed)": "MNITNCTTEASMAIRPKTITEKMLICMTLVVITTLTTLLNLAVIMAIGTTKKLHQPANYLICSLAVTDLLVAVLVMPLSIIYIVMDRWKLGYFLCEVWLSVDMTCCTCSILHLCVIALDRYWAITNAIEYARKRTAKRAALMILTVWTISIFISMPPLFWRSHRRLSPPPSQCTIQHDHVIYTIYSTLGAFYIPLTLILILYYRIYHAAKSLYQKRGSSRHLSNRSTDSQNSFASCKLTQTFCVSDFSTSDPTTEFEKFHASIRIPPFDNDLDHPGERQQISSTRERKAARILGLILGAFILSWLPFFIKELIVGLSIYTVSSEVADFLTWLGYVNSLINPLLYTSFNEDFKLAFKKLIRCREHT", "assay": "PDSP radioligand competition binding, 5-HT1E", "settings": "5-HTR profiling"}, "5-HT3": {"biological_target": "T1, 5-HT3 (Homo sapiens, UniProt P46098)", "T1 sequence (P46098 24-478)": "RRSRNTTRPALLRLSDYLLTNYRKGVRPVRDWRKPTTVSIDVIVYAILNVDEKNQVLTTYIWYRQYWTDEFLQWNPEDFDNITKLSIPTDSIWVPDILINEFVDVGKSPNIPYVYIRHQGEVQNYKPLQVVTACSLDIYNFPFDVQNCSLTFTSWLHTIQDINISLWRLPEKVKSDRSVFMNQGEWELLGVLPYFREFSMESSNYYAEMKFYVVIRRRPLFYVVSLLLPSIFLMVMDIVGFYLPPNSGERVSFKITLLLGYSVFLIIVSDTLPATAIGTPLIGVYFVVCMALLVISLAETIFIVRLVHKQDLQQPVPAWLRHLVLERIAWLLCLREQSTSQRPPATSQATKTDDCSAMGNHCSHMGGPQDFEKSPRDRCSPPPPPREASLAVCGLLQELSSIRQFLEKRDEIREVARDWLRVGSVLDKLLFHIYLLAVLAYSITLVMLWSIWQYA", "assay": "PDSP radioligand competition binding, 5-HT3", "settings": "5-HTR profiling"}, "5-HT1A": {"biological_target": "T2, 5-HT1A (Homo sapiens, UniProt P08908)", "T2 sequence (P08908 1-422)": "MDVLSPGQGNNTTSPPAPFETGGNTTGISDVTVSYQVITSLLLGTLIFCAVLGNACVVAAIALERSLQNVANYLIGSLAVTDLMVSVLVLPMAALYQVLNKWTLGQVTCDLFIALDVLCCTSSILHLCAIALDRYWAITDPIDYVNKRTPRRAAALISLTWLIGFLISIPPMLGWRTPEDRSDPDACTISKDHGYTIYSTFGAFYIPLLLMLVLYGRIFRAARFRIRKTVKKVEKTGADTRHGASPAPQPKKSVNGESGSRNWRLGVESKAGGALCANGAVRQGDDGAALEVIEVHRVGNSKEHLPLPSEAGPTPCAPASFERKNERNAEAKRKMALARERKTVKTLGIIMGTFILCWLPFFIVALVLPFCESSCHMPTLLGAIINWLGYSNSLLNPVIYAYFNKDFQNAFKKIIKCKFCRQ", "settings": "5-HTR profiling"}, "5-HT5a": {"biological_target": "5-HT5a (Homo sapiens, UniProt P47898)", "sequence (P47898 whole entry, species assumed)": "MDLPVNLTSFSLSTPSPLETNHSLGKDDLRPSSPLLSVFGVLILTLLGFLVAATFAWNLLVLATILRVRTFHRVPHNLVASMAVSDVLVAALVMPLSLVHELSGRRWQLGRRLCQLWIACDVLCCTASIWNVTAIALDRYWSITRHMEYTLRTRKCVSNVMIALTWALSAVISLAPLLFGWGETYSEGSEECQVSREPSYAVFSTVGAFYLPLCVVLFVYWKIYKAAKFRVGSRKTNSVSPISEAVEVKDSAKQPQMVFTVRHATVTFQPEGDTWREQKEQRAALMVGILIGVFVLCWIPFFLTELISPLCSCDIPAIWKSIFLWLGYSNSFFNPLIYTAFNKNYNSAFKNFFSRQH", "settings": "5-HTR profiling"}, "5-HT6": {"biological_target": "5-HT6 (Homo sapiens, UniProt P50406)", "sequence (P50406 whole entry, species assumed)": "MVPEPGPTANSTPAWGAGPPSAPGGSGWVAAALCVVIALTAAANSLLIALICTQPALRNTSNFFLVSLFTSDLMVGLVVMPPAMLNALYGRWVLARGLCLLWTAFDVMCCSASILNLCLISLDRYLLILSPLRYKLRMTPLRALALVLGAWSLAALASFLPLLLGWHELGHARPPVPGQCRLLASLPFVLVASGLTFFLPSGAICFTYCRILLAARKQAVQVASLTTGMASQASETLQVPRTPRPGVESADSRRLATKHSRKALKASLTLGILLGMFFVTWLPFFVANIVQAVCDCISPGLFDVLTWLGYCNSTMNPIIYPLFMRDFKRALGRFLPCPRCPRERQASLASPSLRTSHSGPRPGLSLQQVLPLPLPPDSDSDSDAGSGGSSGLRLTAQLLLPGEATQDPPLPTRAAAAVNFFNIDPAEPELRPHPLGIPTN", "settings": "5-HTR profiling"}, "5-HT7": {"biological_target": "5-HT7 (Homo sapiens, UniProt P34969)", "sequence (P34969 whole entry, species assumed)": "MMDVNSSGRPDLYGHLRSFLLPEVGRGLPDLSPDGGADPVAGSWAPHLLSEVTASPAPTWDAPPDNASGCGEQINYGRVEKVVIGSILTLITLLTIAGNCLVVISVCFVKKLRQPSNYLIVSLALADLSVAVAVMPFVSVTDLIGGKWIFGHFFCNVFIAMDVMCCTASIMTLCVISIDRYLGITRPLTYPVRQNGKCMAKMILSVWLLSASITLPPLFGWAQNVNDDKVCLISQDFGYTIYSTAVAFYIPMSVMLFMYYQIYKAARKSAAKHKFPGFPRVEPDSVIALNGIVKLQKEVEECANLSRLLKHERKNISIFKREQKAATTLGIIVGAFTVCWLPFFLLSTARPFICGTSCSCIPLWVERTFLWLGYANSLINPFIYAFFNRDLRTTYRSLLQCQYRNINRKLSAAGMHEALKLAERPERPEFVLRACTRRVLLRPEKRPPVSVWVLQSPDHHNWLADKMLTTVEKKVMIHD", "settings": "5-HTR profiling"}},
  "data": [
    {"compound": "CNC(=O)c1cccc(Oc2ccc(NC(=O)Nc3ccc(Cl)c(C(F)(F)F)c3)cc2)c1", "note": "[HN01]", "values": [
      {"measurement": "change of binding relative to sorafenib (in words)", "setting": "5-HT2B", "value": "slight improvement of binding"}
    ]},
    {"compound": "O=C(c1ccc(F)cc1)C1CCN(CCn2c(=O)[nH]c3ccccc3c2=O)CC1", "note": "[ketanserin]", "values": [
      {"measurement": "decrease of binding by mutation", "setting": "5-HT2A F6.51L mutant", "value": "at least 800 fold"},
      {"measurement": "decrease of binding by mutation", "setting": "5-HT2A W6.48A mutant", "value": 7, "unit": "fold"},
      {"measurement": "effect of mutation on binding affinity (in words)", "setting": "5-HT2A S3.36A/C mutant", "value": "almost no effect"},
      {"measurement": "effect of mutation on binding affinity (in words)", "setting": "5-HT2A F6.52L mutant", "value": "almost no effect"}
    ]},
    {"compound": "CNC(=O)c1cc(Oc2ccc(NC(=O)Nc3ccc(Cl)c(C(F)(F)F)c3)cc2)ccn1", "note": "[sorafenib]", "values": [
      {"measurement": "binding (in words)", "setting": "5-HT2A", "value": "weakly binds"},
      {"measurement": "binding (in words)", "setting": "5-HT1B", "value": "doesn’t bind"},
      {"measurement": "binding (in words)", "setting": "5-HT1E", "value": "doesn’t bind"},
      {"measurement": "binding (in words)", "setting": "5-HT3", "value": "doesn’t bind"},
      {"measurement": "binding (in words)", "setting": "5-HT1A", "value": "weakly binds"},
      {"measurement": "binding (in words)", "setting": "5-HT5a", "value": "weakly binds"},
      {"measurement": "binding (in words)", "setting": "5-HT6", "value": "weakly binds"},
      {"measurement": "binding (in words)", "setting": "5-HT7", "value": "weakly binds"}
    ]}
  ]
}
